In US20110033883A1, “IMAGING DYES AND USE THEREOF” (priority 2007, published 2011):
Ahx = NCCCCCC(=O)O

Legend:
[1] = Luminescence intensity as a function of pH, excited state pKa; assay type: physicochemical; conditions: excitation at isosbestic point, luminescence intensity vs pH
Method: (§1) Resonance Raman spectroscopy was performed on a Horiba Jobin Yvon HR800UV confocal microscope using an Argon ion Laser (458 nm or 514 nm) or a Helium-Neon (HeNe) laser (633 nm) as the exciting wavelength. Ten spectral acquisitions were accumulated and each acquisition was two seconds in length. Steady-state emission spectra were recorded on a Cary Eclipse Fluorescence spectrophotometer, and luminescence lifetimes were obtained using a Picoquant Fluotime 100 TCSPC system exciting at 470 nm and detecting at 600 nm using a narrow band pass dielectric filter. Quantum yields were measured using the comparative method described by Williams et al. In quenching studies, the luminophore/quencher concentrations were corrected for dilution.
The pH was adjusted with H2SO4 (Sigma-Aldrich) and KOH (Sigma-Aldrich) and measured with a pH meter. UV/vis absorption spectra during the pH titration experiment were corrected for change in volume.
The luminescence wavelength and its intensity are pH dependent. While the emission maximum at pH 7 is at 608 nm, it shifts to higher wavelength with increasing and decreasing pH (λmax (pH 1.3)=623 nm; λmax (pH 11)=616 nm). When the pic ligand is in its neutral state, the luminescence is very bright (Φ=0.06), about 30% more intense than the one of [Ru(bpy)3]^2+. […]

[2] = Oxygen quenching of luminescence (Stern-Volmer); assay type: physicochemical
Method: Different oxygen concentrations were adjusted by streaming various O2—N2-mixtures through the solution until equilibrium was reached. The oxygen concentration was measured with an optical O2 electrode (Visiferm DO120, Hamilton). The fluorescence lifetime of the equilibrated dye solutions was measured in a closed-system flow cell.
In air saturated PBS solutions the lifetime drops down to 540 ns when the pic ligand is neutral, and even down to 350 ns, when the pic moiety is deprotonated. Stern-Volmer plots are linear up to air saturated solutions and then start levelling of. The Stern-Volmer quenching constants range actually vary very little with pH 2100 M^−1 for pH 10 to around 2900 M^−1 when the pic moiety is in its neutral state. The corresponding bimolecular rate constants vary between around […] when the pic moiety is deprotonated to […] when the pic moiety is in its neutral state, which is essentially the same within experimental error. This means that within the limited range of the cellular environment the O2 concentration within a cell can be assessed independently of pH using this dye.

[3] = test system: Sp2/0-Ag 14 myeloma cells; experiment: Sytox green counterstain for cell viability; assay type: cell-based, mouse; conditions: over 2 hours
Method: Sp2/0-Ag 14 myeloma cells (ATCC number CRL-1581™) were obtained from the ATCC Cell Biology Collection (United Kingdom). Cells were grown in Dulbecco's modified Eagle's medium (Sigma-Aldrich) supplemented with 10% foetal calf serum (Gibco Invitrogen) and 1% L-glutamine (Gibco Invitrogen) at 37° C. and 5% CO2. Cells were harvested after growing for 2 days. The viability was ensured by testing them in a trypan blue assay. In a usual sample less than 1% of the cells were dead. The growth medium was removed by centrifuging the cells at 2000 rpm for 2 min in an Eppendorff centrifuge, washed twice and resuspended in PBS buffer.
To identify where the Ru dye [Ru(bpy)2(PIC-arg8)]^2+ is localizing inside the cell, cells were counterstained with two commercial dyes. […] Both dyes can be excited with the 458 nm line of an argon ion laser used for excitation of the [Ru(bpy)2(pic-R8)]^n+ dye, however, their fluorescence is in the green (around 500 nm), and therefore could be easily spectrally separated from the fluorescence of the Ru complex. […]
The luminescence images of myeloma cells were recorded with a Zeiss LSM510 Meta confocal microscope, using a 63× oil immersion objective (NA 1.4). […] The luminescence from the Ru complexes was collected using a longpass filter at 560 nm. […]

[4] = test system: mouse SP2/0 myeloma cells; experiment: Resonance Raman mapping of myeloma cells; assay type: cell-based; conditions: myeloma cell incubated for 15 min
Method: as §1
For the fluorescence and fluorescence lifetime experiments 100 μl aliquots were used and incubated with the 3 μl of the Ru-octopeptide (1.2 mM), resulting in a final dye concentration of 3.5×10^−5 M. If only resonance Raman experiments were performed, the cells were incubated in the medium with dye for 15 minutes prior to the washing step.
The resonance Raman maps of the stained myeloma cells were analyzed using the modelling option implemented in the LabSpec software. A model with 4 components was creating, grouping together similar spectra in one component (background, where there is no dye/no cell, outer cell (membrane), cytoplasm and nucleus). […]

[Ru(bpy)2(PicH-R8)]^n+: ruthenium centre with two bipyridine ligands and one picH ligand; octaarginine coupled to pic carboxy end via Ahx spacer, amide linkage ({(Ru(bpy)2(picH))-Ahx}-RRRRRRRR-NH2; also: Ru(bpy)2 picH ruthenium complex attached via Ahx spacer)
excited state pKa2* [1]: 8.1±0.2 | bimolecular rate constant of oxygen quenching ([2]; pic moiety deprotonated): around 3.6×10^−9 M^−1 s^−1 | bimolecular rate constant of oxygen quenching ([2]; pic moiety in its neutral state): 3e-09 M⁻¹ s⁻¹ | cell viability (Sytox green exclusion) [3]: did not kill the cells | distribution of the dye inside the cell (Raman map, band at 1487 cm^−1) [4]: distributed throughout the cytoplasm, with less dye in the nucleus
